The test system of one experiment is HOP-62. Description: Growth inhibition of human HOP62 cells. The experiment is classed as functional.
A further experiment deals with A2780. In words: Growth inhibition of human A2780 cells. Format: functional.
Experiment [1] relates to MCF7. In words: Growth inhibition of human MCF7 cells. The experiment is classed as functional.
For another experiment, the system named is A549. In words: Growth inhibition of human A549 cells. The experiment is classed as functional.
The test system of a further experiment is KB. In words: Growth inhibition of human KB cells. Format: functional.
The test system of the next experiment is ZR-75-1. Description: Growth inhibition of human ZR-75-1 cells. The experiment is classed as functional.
The next experiment relates to COLO 205. In words: Growth inhibition of human COLO205 cells. Format: functional.
The nature of experiment [2]: Growth inhibition of human Gurav cells. The experiment is classed as functional.
Another experiment deals with SiHa. In words: Growth inhibition of human SiHa cells. The experiment is classed as functional.
A further experiment deals with Calf thymus DNA. Description: Binding affinity to calf thymus DNA assessed as change in melting temperature at compound to DNA ratio of 1:5 after 18 hrs by thermal denaturation analysis. The conditions noted are these: Bos taurus. The experiment is classed as nucleic-acid assay.
Experiment [3] has as its system MCF7. Description: Cell cycle arrest in human MCF7 cells assessed as accumulation at G0/G1 phase at 4 uM after 24 hrs by propidium iodide staining based flow cytometry (reference value: 60.75%). The experiment is classed as functional. On the technique in general: Flow cytometry measures light scatter and fluorescence of single cells or particles in a stream.
In experiment [4] the test system is MCF7. Description: Cell cycle arrest in human MCF7 cells assessed as accumulation at G2/M phase at 4 uM after 24 hrs by propidium iodide staining based flow cytometry (reference value: 24.95%). The experiment is classed as functional.
Experiment [5] deals with MCF7. In words: Cell cycle arrest in human MCF7 cells assessed as accumulation at G0 phase at 4 uM after 24 hrs by propidium iodide staining based flow cytometry (reference value: 2.77%). The experiment is classed as functional.
The subject of experiment [6] is MCF7. In words: Cell cycle arrest in human MCF7 cells assessed as accumulation at S phase at 4 uM after 24 hrs by propidium iodide staining based flow cytometry (reference value: 14.30%). Format: functional.
In experiment [7] the test system is MCF7. Description: Cell cycle arrest in human MCF7 cells assessed as accumulation at G1 phase at 4 uM after 24 hrs by propidium iodide staining based flow cytometry (reference value: 57.98%). The experiment is classed as functional.
Another experiment has as its system PC-3. Description: Growth inhibition of human PC3 cells. The experiment is classed as functional.

Consider 13 compounds from ChEMBL document CHEMBL3217457, “Carbazolepyrrolo[2,1-c][1,4]benzodiazepine conjugates: design, synthesis, and biological evaluation” (Medchemcomm, 2011).

For orientation: GI50 means the concentration at which growth is held to half of that of the control. The low end stands for greater sensitivity of the cells, the high end for lower sensitivity of the cells. One may read the ΔTm as the change in melting temperature against a reference sample. Turning to `COc1cc2c(cc1OCCCCCCn1c3ccccc3c3ccccc31)N=C[C@@H]1CCCN1C2=O`, the GI50 with HOP-62 stood at 1.58 µM; in the experiment on A2780 it was 1.7 µM; in the experiment on MCF7 [1] it was 1.65 µM; in the experiment on A549, 1.5 µM; in the experiment with KB, 1.95 µM; with ZR-75-1 it was 2.14 µM. For the same compound, the GI50 in the experiment on COLO 205 came to 1.62 µM; in experiment [2], 1.71 µM; in the experiment on SiHa, 1.58 µM. Besides, the ΔTm with Calf thymus DNA turned out to be 4.7 °C.

Turning to `COc1ccc(-c2ccc3[nH]c4ccc(-c5ccc(OC)cc5)cc4c3c2)cc1`, the Activity with MCF7 [3] is given as 66.63%; in the experiment on MCF7 [4], 21.53%; with MCF7 [5], 4.39%; with MCF7 [6] it was 11.84%; with MCF7 [7], 62.24%.

`COc1cc2c(cc1OCCCCn1c3ccccc3c3ccccc31)N=C[C@@H]1CCCN1C2=O`: the GI50 was 1.93 µM with HOP-62; 1.57 µM in the experiment with A2780; 2.21 µM in the experiment on MCF7 [1]; 1.92 µM in the experiment on A549; 1.87 µM in the experiment on KB; 1.81 µM in the experiment on ZR-75-1. Also, the GI50 in the experiment with COLO 205 turned out to be 1.7 µM; in [2], 1.6 µM; with SiHa, 1.7 µM. In addition, the thermal shift (ΔTm) in the experiment with Calf thymus DNA came out at 3.5 °C.

As for `COc1ccc(-c2ccc3c(c2)c2cc(-c4ccc(OC)cc4)ccc2n3CCCCOc2cc3c(cc2OC)C(=O)N2CCC[C@H]2C=N3)cc1`, the GI50 in the experiment on PC-3 turned out to be 0.16 µM; in the experiment with HOP-62, 0.14 µM; in the experiment with A2780 it was 0.16 µM; in the experiment with MCF7 [1], 0.15 µM; in the experiment with A549 it was 0.19 µM; in the experiment with KB, 0.19 µM. Besides, the figures for the GI50 in the experiment on COLO 205 and in the experiment on SiHa were 0.19 µM and 0.17 µM, respectively. Further, the Activity in the experiment on MCF7 [3] is listed as 67%; with MCF7 [4], 21.88%; in the experiment with MCF7 [5] it was 4.4%; with MCF7 [6], 11.12%; with MCF7 [7], 62.6%. In addition, in the experiment with Calf thymus DNA, the ΔTm amounted to 4.3 °C.

`COc1cc2c(cc1OCCCN1CCN(CCCCn3c4ccccc4c4ccccc43)CC1)N=C[C@@H]1CCCN1C2=O`: the 50% growth inhibitory concentration (GI50) in the experiment with PC-3 is 0.11 µM; with HOP-62 it was 0.1 µM; in the experiment on A2780, 0.11 µM; with MCF7 [1], 0.15 µM; in the experiment with A549, 0.12 µM; with KB, 0.14 µM. Also, the GI50 in the experiment on ZR-75-1 turned out to be 0.15 µM; with COLO 205, 0.14 µM; in experiment [2] it was 0.13 µM; with SiHa, 0.13 µM. The ΔTm in the experiment with Calf thymus DNA stood at 8.5 °C.

For the compound `COc1cc2c(cc1OCCCCN1CCN(CCCn3c4ccccc4c4ccccc43)CC1)N=C[C@@H]1CCCN1C2=O`, the GI50 was determined as 0.14 µM with PC-3; 0.11 µM in the experiment on HOP-62; 0.14 µM with A2780; 0.15 µM in the experiment on MCF7 [1]; 0.14 µM in the experiment on A549; 0.16 µM in the experiment on KB. Moreover, the GI50 with ZR-75-1 amounted to 0.16 µM; in the experiment on COLO 205 it was 0.17 µM; in experiment [2] it was 0.15 µM; with SiHa, 0.16 µM. Besides, the shift in melting temperature (ΔTm) with Calf thymus DNA amounted to 7.9 °C.

Take `COc1cc2c(cc1OCCCCN1CCN(CCCCn3c4ccccc4c4ccccc43)CC1)N=C[C@@H]1CCCN1C2=O`: the GI50 was 0.1 µM in the experiment on PC-3; 0.08 µM in the experiment with HOP-62; 0.16 µM in the experiment on A2780; 0.12 µM with MCF7 [1]; 0.13 µM in the experiment with A549; 0.15 µM in the experiment with KB. The GI50 with ZR-75-1 was 0.15 µM; in the experiment on COLO 205 it was 0.16 µM; in experiment [2], 0.17 µM; with SiHa it was 0.15 µM. Further, the ΔTm with Calf thymus DNA amounted to 8.4 °C.

For the compound `COc1cc2c(cc1OCCCn1c3ccccc3c3ccccc31)N=C[C@@H]1CCCN1C2=O`, the GI50 was 1.93 µM in the experiment with HOP-62; 1.21 µM in the experiment on A2780; 1.85 µM in the experiment on MCF7 [1]; 1.84 µM in the experiment with A549; 1.87 µM in the experiment with KB; 1.89 µM in the experiment with ZR-75-1. For the same compound, the GI50 in the experiment on COLO 205 was 1.68 µM; in [2], 1.6 µM; in the experiment with SiHa, 1.7 µM. The ΔTm in the experiment with Calf thymus DNA is 4 °C.

For `COc1ccc(-c2ccc3c(c2)c2cc(-c4ccc(OC)cc4)ccc2n3CCCOc2cc3c(cc2OC)C(=O)N2CCC[C@H]2C=N3)cc1`, the GI50 in the experiment with PC-3 is 0.16 µM; in the experiment with HOP-62 it was 0.11 µM; with A2780, 0.15 µM; with MCF7 [1] it was 0.13 µM; in the experiment with A549, 0.18 µM; in the experiment on KB it was 0.18 µM. Further, the GI50 with COLO 205 and in the experiment on SiHa was 0.17 µM in each case. Moreover, in the experiment with Calf thymus DNA, the ΔTm turned out to be 4.8 °C.

Turning to `COc1ccc(-c2ccc3c(c2)c2cc(-c4ccc(OC)cc4)ccc2n3CCCCCOc2cc3c(cc2OC)C(=O)N2CCC[C@H]2C=N3)cc1`, the GI50 with PC-3 amounted to 0.15 µM; in the experiment on HOP-62 it was 0.12 µM; with A2780 it was 0.14 µM; in the experiment with MCF7 [1] it was 0.14 µM; in the experiment on A549, 0.16 µM; in the experiment on KB, 0.17 µM. Besides, the GI50 in the experiment with COLO 205 stood at 0.18 µM; with SiHa, 0.17 µM. Moreover, the ΔTm with Calf thymus DNA is 5.9 °C.

With `COc1ccc(-c2ccc3c(c2)c2cc(-c4ccc(OC)cc4)ccc2n3CCCN2CCN(CCCOc3cc4c(cc3OC)C(=O)N3CCC[C@H]3C=N4)CC2)cc1`, the GI50 in the experiment on PC-3 was determined as 0.12 µM; with HOP-62, 0.1 µM; with A2780, 0.01 µM; with MCF7 [1] it was 0.04 µM; in the experiment on A549 it was 0.13 µM; with KB, 0.11 µM. In addition, the GI50 with ZR-75-1 was found to be 0.13 µM; in the experiment with COLO 205, 0.08 µM; in experiment [2] it was 0.12 µM; with SiHa, 0.12 µM. Also, the ΔTm in the experiment on Calf thymus DNA is 7.2 °C.

On to `COc1cccc2c1C(=O)c1c(O)c3c(c(O)c1C2=O)C[C@@](O)(C(=O)CO)C[C@@H]3O[C@H]1C[C@H](N)[C@H](O)[C@H](C)O1` [DOXORUBICIN], for which the GI50 in the experiment on PC-3 worked out at 1.83 µM; with HOP-62 it was 0.14 µM; in the experiment on A2780, 0.16 µM; in the experiment on MCF7 [1], 0.17 µM; in the experiment with KB, 0.17 µM; with COLO 205 it was 0.14 µM. For the same compound, the GI50 in experiment [2] was determined as 0.16 µM; in the experiment with SiHa, 0.17 µM.

On to `COc1cc2c(cc1O)N=C[C@@H]1CCCN1C2=O`, for which the GI50 in the experiment with PC-3 was 0.2 µM; in the experiment on HOP-62 it was 0.15 µM; with A2780, 0.14 µM; in the experiment on MCF7 [1], 0.17 µM; with A549, 0.16 µM; with KB, 0.17 µM. Moreover, the GI50 in the experiment with ZR-75-1 turned out to be 2.34 µM; in the experiment with COLO 205 it was 0.11 µM; in experiment [2] it was 0.17 µM; in the experiment with SiHa, 0.17 µM. In addition, the Activity in the experiment on MCF7 [3] is on record as 67.74%; with MCF7 [4], 20.07%; in the experiment on MCF7 [5] it was 3.95%; in the experiment with MCF7 [6] it was 12.2%; in the experiment on MCF7 [7] it was 63.79%.
